Laboratory results published in US6180650A, “Heterosubstituted pyridine derivatives as PDE 4 inhibitors” (Merck Frosst Canada & Co., priority 2000, dated 2001).

Target: T1, GST-Met 248 PDE 4a (Homo sapiens, UniProt P27815)
T1 construct: phosphodiesterase IVa (met-248); made in house; host or cells: baculovirus/Sf-9
Assay: SPA based PDE activity assay (IC50, purified GST fusion protein of human recombinant phosphodiesterase IVa (met-248), baculovirus/Sf-9)
Assay type: biochemical
Conditions: 100 nM cAMP, 30° C., pH 7.5, 10 min; approximated by non-linear regression of a ten point titration
Procedure: SPA BASED PDE ACTIVITY ASSAY PROTOCOL Compounds which inhibit the hydrolysis of cAMP to AMP by the type-IV cAMP-specific phosphodiesterases were screened in 96-well plate format as follows: In a 96 well-plate at 30° C. was added the test compound (dissolved in 2 μl DMSO), […] of substrate buffer containing [2,8-^3 H] adenosine 3',5'-cyclic phosphate (cAMP, 100 nM to 50 μM), 10 mM MgCl2, 1 mM EDTA, 50 mM Tris, pH 7.5. The reaction was initiated by the addition of […] of human recombinant PDE-IV (the amount was controlled so that ~10% product was formed in 10 min.). The reaction was stopped after 10 min. by the addition of 1 mg of PDE-SPA beads (Amersham). The product AMP generated was quantified on a Microbeta 96-well plate counter. The signal in the absence of enzyme was defined as the background. 100% activity was defined as the signal detected in the presence of enzyme and DMSO with the background subtracted. Percentage of inhibition was calculated accordingly. IC50 value was approximated with a non-linear regression fit using the standard 4-parameter/multiple binding sites equation from a ten point titration. IC50 values shown in Table 7 were determined with 100 nM cAMP using the purified GST fusion protein of the human recombinant phosphodiesterase IVa (met-248) produced from a baculovirus/Sf-9 expression system.

T1 sequence (P27815 248-886 limits assumed): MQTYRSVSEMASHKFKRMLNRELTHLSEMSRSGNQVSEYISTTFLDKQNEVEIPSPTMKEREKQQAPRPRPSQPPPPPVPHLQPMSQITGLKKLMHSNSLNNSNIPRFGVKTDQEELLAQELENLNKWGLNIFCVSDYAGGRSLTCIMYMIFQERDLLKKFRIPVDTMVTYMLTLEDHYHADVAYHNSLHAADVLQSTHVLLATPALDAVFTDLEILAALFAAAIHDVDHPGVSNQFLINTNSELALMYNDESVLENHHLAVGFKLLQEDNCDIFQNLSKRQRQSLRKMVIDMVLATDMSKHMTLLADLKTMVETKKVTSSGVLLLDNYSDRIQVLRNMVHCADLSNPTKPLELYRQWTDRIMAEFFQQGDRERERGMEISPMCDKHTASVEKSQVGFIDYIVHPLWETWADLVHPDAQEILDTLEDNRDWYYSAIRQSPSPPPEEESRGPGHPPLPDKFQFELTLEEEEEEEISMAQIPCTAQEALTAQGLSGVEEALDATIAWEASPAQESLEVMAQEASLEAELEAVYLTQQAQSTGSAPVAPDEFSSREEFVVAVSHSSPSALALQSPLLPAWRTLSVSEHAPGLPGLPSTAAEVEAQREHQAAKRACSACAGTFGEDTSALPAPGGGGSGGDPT

Row | Structure (SMILES) | IC50
1 | [O-][n+]1ccc(CC(c2ccc(OCc3ccc(F)c(F)c3)nc2)c2ccc(OC(F)F)c(OC(F)F)c2)cc1 (racemic) [Example 16, 4-{2-[3,4-Bis(difluoromethoxy)phenyl]-2-[6-(3,4-difluorobenzyloxy)3-pyridyl]ethyl}pyridine-N-oxide] | 1.43 nM
2 | CC(C)(COc1ccc(C(Cc2cc[n+]([O-])cc2)c2ccc(OC(F)F)c(OC(F)F)c2)cn1)c1ccc(F)cc1 (racemic) [Example 23, 4-{2-[3,4-Bis(difluoromethoxy)phenyl]-2-{6-[2-methyl-2-(4-fluorophenyl)propyloxy]3-pyridyl}ethyl}pyridine-N-oxide] | 3.2 nM
3 | CC(C)(Cc1ccccc1)Oc1ccc(C(Cc2cc[n+]([O-])cc2)c2ccc(OC(F)F)c(OC(F)F)c2)cn1 (racemic) [Example 28, 4-{2-[3,4-Bis(difluoromethoxy)phenyl]-2-[6-(1,1-dimethyl-2-phenylethoxy)3-pyridyl]ethyl}pyridine-N-oxide] | 0.2 nM
4 | [O-][n+]1ccc(CC(c2ccc(Oc3ccc(OC(F)(F)F)cc3)nc2)c2ccc(OC(F)F)c(OC(F)F)c2)cc1 (racemic) [Example 1, 4-{2-[3,4-Bis(difluoromethoxy)phenyl]-2-{6-[4-(trifluoromethoxy)phenoxy]3-pyridyl}ethyl}pyridine-N-oxide] | 2.85 nM
